The target in assay [1] is T1, α2-KD A156T (AT) mutant (Homo sapiens, UniProt P54646, A156T).
T1 construct: amplifying residues 1-310 with 5' BamH1 and 3' Xho1 sites; made in house; host or cells: bacteria
Put plainly: Activation and phosphorylation of unphosphorylated α2-KD AT mutant by LKB1. The assay is classed as biochemical. From the text:
(§1) (B) Effect of ATP concentration on kinase activity of α2-KD in the presence of increasing concentrations of SU6656. Results (mean, n = 2) were fitted to the equation Y= (Vmax × X)/(Km × (1 + I/Ki) + X), where Y is the activity, X is the ATP concentration, I is the concentration of SU6656, and Ki is the inhibitory constant for SU6656. […] (D and E) Effect of increasing concentrations of SU6656 on activity (D) and Thr172 phosphorylation (E) induced by LKB1 with unphosphorylated α2-KD (WT/AT mutant). Results in (D) are mean ± SEM (n = 3); and were fitted to same equation as Figure 4C. […] See also Figure S3. (F) Effect of AMP (2 mM) and SU6656 on inactivation of AMPK by PP2Cα in the presence of 5 mM ATP. […] (G) Effects of AMP or SU6656 on activation (top) and Thr172 phosphorylation (bottom) by LKB1 of AMPK-γ1 complexes expressed in HeLa cells. FLAG-tagged AMPK-γ1, either wild-type (WT) or R299G mutant (RG), was expressed in HeLa cells and AMPK complexes precipitated using anti-FLAG antibody. The complexes (which have low basal phosphorylation due to lack of LKB1 in HeLa cells) were incubated with or without a limiting amount of LKB1, AMP (200 μM) or SU6656 (3 μM) for 10 min and AMPK activity determined.
We next used unphosphorylated α2-KD and tested the effect of SU6656 on its activation and phosphorylation by LKB1.

A further assay relates to mice. Also on record: method as in Yamada et al., 2010. To be noted: ref Yamada et al., 2010; cited from earlier work.
A further assay addresses T2, AMPK-γ1 complexes (WT) (Homo sapiens, UniProt P54619).
T2 construct: Plasmid encoding full-length human AMPK-γ1; expressed in transfected cells; host or cells: HeLa
The experiment in a line: Activation by LKB1 of FLAG-AMPK-γ1 (WT) complexes precipitated from HeLa cells. The assay is classed as biochemical. As to conditions: AMP 200 μM or SU6656 3 μM, 10 min.
Source text: as §1, with “determined. […]” for “determined.”

Assay [2] deals with T1, α2-KD A156T (AT) mutant. The experiment in a line: Inhibition of phosphorylated α2 kinase domain, A156T (AT) mutant. The assay is classed as biochemical.
The next assay relates to AMPK. Put plainly: AMPK activity in HeLa cells stably expressing LKB1. The assay is classed as cell-based, human. To be noted: HeLa cells expressing LKB1, 100 μM, 1 hr. The procedure:
Figure 1 SU6656 Activates AMPK but Not AMPK-Related Kinases (A) HEK293 cells were incubated with the indicated concentrations of SU6656 or berberine (300 μM) for 1 hr; total AMPK activity was assayed in immunoprecipitates (top; mean ± SEM, n = 4), and phosphorylation of AMPK (Thr172), ACC (Ser80), and Raptor (Ser792) analyzed by western blotting (bottom; n = 2). (B) HEK293 cells were incubated with 100 μM SU6656 (1 hr), AMPK complexes containing α1, α2, β1, and β2 immunoprecipitated using isoform-specific antibodies, and AMPK activity measured (mean ± SEM, n = 4). (C) HeLa cells stably expressing LKB1 ([Fogarty et al., 2010]) were incubated with 100 μM SU6656 for 1 hr, AMPK or individual ARKs immunoprecipitated, and kinase assays carried out (antibodies that distinguish MARK2/MARK3 were not available, so they were assayed together). Results are means ± SEM (n = 2). In all panels, asterisks indicate significant differences from controls without SU6656. *p < 0.05, **p < 0.01, ****p < 0.0001. […]

Assay [3] has as its target T3, AMPK-γ1 R299G (RG) complexes (Homo sapiens, UniProt P54619, R299G).
T3 construct: Plasmid encoding full-length human AMPK-γ1; expressed in transfected cells; host or cells: HeLa
Put plainly: Activation by LKB1 of FLAG-AMPK-γ1 R299G (RG) complexes precipitated from HeLa cells. The assay is classed as biochemical. As to conditions: RG mutant γ1; AMP 200 μM or SU6656 3 μM, 10 min.
Source text: as §1, with “determined. […]” for “determined.”

For another assay, the system named is purified rat liver AMPK. Put plainly: Kinase assay of purified rat liver AMPK at 2 mM ATP. The assay is classed as biochemical. To be noted: ± 1 mM AMP.
In another assay the target is T4, AMPK-α1 AT mutant (Homo sapiens, UniProt Q13131, A167T).
T4 construct: we expressed FLAG-tagged full-length AMPK-α1 either as the WT or the AT mutant; expressed in transfected cells; host or cells: HEK293 (transient transfection)
T4 sequence (Q13131 whole entry A167T): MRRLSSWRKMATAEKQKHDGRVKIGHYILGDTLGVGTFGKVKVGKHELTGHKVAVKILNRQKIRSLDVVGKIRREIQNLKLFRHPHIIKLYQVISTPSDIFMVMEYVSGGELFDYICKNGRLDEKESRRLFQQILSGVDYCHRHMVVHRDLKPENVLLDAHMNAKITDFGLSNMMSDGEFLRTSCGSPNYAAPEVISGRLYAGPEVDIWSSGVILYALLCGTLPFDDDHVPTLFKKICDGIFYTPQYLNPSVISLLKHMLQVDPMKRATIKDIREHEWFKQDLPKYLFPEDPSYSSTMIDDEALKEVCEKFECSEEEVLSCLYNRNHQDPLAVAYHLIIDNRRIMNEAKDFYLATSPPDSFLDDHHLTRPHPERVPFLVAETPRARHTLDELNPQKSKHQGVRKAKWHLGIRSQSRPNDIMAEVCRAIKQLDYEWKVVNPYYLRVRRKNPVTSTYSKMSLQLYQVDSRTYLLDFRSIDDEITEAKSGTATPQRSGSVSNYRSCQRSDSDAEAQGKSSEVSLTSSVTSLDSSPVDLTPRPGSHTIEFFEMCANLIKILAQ
T4 sequence (P54619 whole entry partner): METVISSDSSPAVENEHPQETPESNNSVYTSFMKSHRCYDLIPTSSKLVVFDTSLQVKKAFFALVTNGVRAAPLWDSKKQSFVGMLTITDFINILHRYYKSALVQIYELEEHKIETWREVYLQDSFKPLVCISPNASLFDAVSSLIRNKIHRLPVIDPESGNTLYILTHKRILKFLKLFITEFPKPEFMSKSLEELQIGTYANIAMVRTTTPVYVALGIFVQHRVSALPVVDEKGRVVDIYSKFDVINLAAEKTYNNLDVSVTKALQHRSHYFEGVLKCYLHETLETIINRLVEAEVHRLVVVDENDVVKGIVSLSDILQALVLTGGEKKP
The experiment in a line: AMPK activity of FLAG-tagged AMPK-α1 AT mutant expressed in HEK293 cells. The assay is classed as cell-based. As to conditions: AT mutant FLAG-α1, 1 hr. From the text:
The α1-KD was precipitated using anti-FLAG and endogenous AMPK complexes using anti-α1 antibody, and activity determined. Results (mean ± SD, n = 2) are expressed relative to activities in DMSO controls. (B) Western blots (n = 2) using the indicated antibodies; samples from experiment in (A). (C) DNAs encoding FLAG-tagged AMPK-α1 (WT or AT mutant) were expressed by transient transfection in HEK293 cells, the cells treated with increasing concentrations of SU6656 for 1 hr, AMPK complexes precipitated with anti-FLAG, and activity measured. Results (mean ± SD, n = 3) are expressed relative to the DMSO control. […] Results (mean ± SD, n = 3) are expressed relative to the DMSO control. **p < 0.01, ***p < 0.001, ****p < 0.0001, ^†††p < 0.001; ns, not significant.
To confirm that it acted by binding at the catalytic site, we expressed FLAG-tagged full-length AMPK-α1 either as the WT or the AT mutant.

T1 sequence (P54646 1-310 A156T): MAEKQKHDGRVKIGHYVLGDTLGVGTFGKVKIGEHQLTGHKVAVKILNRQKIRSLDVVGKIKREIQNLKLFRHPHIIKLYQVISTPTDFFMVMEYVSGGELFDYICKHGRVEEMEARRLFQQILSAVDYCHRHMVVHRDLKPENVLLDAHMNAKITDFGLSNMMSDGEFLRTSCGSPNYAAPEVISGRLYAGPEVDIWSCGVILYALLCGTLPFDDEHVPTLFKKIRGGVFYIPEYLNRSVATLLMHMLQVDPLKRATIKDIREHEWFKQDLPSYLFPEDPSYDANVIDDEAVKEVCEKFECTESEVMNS
T2 sequence (P54619 whole entry, one chain of several): as the sequence (P54619 whole entry partner) above
T3 sequence (P54619 whole entry R299G, one chain of several): as the sequence (P54619 whole entry partner) above, with R299G counted along it

At α2-KD A156T (AT) mutant [1], `CN(C)S(=O)(=O)c1ccc2c(c1)/C(=C/c1cc3c([nH]1)CCCC3)C(=O)N2` [SU6656] showed an EC50 of 70 nM. Moreover, at α2-KD A156T (AT) mutant [1], the “activation of α2-KD by LKB1” value is on record as 1.07 fold. For the same compound, the fatty acid oxidation entry in the assay with mice is listed as “increased fatty acid oxidation”. For the same compound, the “activation and Thr172 phosphorylation by LKB1” value at AMPK-γ1 complexes (WT) was “promoted activation and increased Thr172 phosphorylation”; in assay [3] it was “preserved”. For the same compound, on α2-KD A156T (AT) mutant [2] (AT mutant α2-KD phosphorylated using CaMKK2, read-out: IC50 for inhibition of catalytic activity), the IC50 stood at 1700 ± 300 nM. The “fold less potent inhibition with AT mutant than WT” value on α2-KD A156T (AT) mutant [2] (AT versus WT α2-KD) is on record as approximately 10 fold. The AMPK activity entry with AMPK was “robustly activated AMPK”; on AMPK-α1 AT mutant, “greatly reduced”. Further, in the assay on purified rat liver AMPK, the “concentrations inhibiting both basal and AMP-stimulated activity” value is “above 1 μM”.

Source of the values: article PMC5522529, “Mechanisms of Paradoxical Activation of AMPK by the Kinase Inhibitors SU6656 and Sorafenib” (Cell Chemical Biology, 2017).
